Test results reported in patent publication EP0209275B1, “Benz-trisubstituted 2-aminotetralins” (SMITHKLINE BECKMAN CORPORATION, priority 1985, dated 1987).
Where two headings read alike, the source gives them in different places.

Legend:
D2 receptors = molecular target: T1, D2 receptors (Bos taurus, UniProt P20288); assay: D2 activity - competition for 3H-spiroperidol binding in bovine anterior pituitary membranes; conditions: for Kb: competition with 3H-spiroperidol (approximately .25 nM), bovine anterior pituitary membranes, figure in parentheses = number of tests, read-out: D2 (KBind, KB); for D2 to D1 ratios: selectivity ratio from the D1 and D2 binding data of Tables I and II, n to 1 = D2 selective, 1 to n = D1 selective
T1 construct: homogenized and washed membrane preparations from bovine anterior pituitary; from tissue; host or cells: bovine anterior pituitary membranes
Experimental: A) D2 Activity - Competition for ^3H-Spiroperidol in Bovine Anterior Pituitary Tissue. Test Procedure
The assay was performed using homogenized and washed membrane preparations from bovine anterior pituitary. Incubation proceeded for 20 minutes at 37° in 50 mM Tris-HCI, pH 7.4, containing 10 mM magnesium sulfate, 2 mM ethylenediamine tetra-acetic acid and 0.1 % ascorbate. The membrane- bound radioactivity was trapped by rapid filtration over glass fiber (GF/C) filters. In each experiment, the amount of ^3H-spiroperidol bound was determined in the absence (total) and presence (non-specific) of 10^-6M (+)-butaclamol, the difference yielding specific ^3H-spiroperidol binding. The ability of each compound to compete with ^3H-spiroperidol (approximately .25 nM) was tested at concentrations of 10-^7 and 10-^5.

D1 receptors = molecular target: T2, D1 receptors (Rattus norvegicus, UniProt P18901); assay: D1 activity - competition for 3H-fenoldopam binding in rat striatum (caudate) membranes
T2 construct: homogenized and washed membrane preparations from rat caudate nuclei; from tissue; host or cells: rat caudate nuclei (striatum) membranes
Experimental: B) D1 Activity - Competition for ^3H-Fenoldopam in Rat Striatum Tissue. Test Procedure
The assay was performed using homogenized and washed membrane preparations from rat caudate nuclei. Tissues were preincubated for 15 min at 37° in 50 mM Tris-HCI, pH 7.4, 10 mM magnesium sulfate, 2 mM ethylenediamine tetra-acetic acid and 0.1 % ascorbate. The binding assay was then carried out in the above buffer also containing 10 µm pargyline, ^3H-fenoldopam and test compounds. The membrane- bound radioactivity was trapped by rapid filtration over glass fiber (GF/C) filters. In each experiment the amount of ^3H-fenoldopam bound was determined in the absence (total) and presence (non-specific) of 10^-6M (+)-butaclamol, the difference yielding specific ^3H-fenoldopam binding. The ability of each compound to compete with ^3H-fenoldopam (approximately 2.0 nM) was tested at concentrations of 10-^7 and 10^-6M.

a2 = assay: Clonidine binding protocol (a2 activity)
rabbit ear artery = assay: Standard rabbit ear artery protocol for pre-junctional dopaminergic activity; conditions: ED50 for Compound D
[1] = system: spontaneous hypertensive rat; assay: Natriuretic activity in the spontaneous hypertensive rat protocol; type: in vivo; conditions: at a hypotensive dose (Compound G: 3.12 mg/kg i.p.)
[2] = competition with 3H-fenoldopam (approximately 2.0 nM), rat caudate membranes, figure in parentheses = number of tests, read-out: D1 (KBind, KB)

T2 sequence (P18901 whole entry): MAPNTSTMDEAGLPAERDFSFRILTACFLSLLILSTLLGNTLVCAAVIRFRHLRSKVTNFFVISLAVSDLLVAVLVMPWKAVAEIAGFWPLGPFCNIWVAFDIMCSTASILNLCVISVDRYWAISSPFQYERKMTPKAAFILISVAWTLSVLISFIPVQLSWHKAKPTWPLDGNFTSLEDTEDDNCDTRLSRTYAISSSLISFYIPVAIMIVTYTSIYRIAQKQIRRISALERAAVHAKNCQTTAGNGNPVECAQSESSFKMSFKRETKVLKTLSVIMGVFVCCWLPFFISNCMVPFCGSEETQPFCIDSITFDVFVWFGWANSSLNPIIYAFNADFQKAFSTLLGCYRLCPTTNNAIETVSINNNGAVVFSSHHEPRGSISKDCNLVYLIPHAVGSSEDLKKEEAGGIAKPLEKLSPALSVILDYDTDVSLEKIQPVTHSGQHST
T1 sequence (P20288 whole entry): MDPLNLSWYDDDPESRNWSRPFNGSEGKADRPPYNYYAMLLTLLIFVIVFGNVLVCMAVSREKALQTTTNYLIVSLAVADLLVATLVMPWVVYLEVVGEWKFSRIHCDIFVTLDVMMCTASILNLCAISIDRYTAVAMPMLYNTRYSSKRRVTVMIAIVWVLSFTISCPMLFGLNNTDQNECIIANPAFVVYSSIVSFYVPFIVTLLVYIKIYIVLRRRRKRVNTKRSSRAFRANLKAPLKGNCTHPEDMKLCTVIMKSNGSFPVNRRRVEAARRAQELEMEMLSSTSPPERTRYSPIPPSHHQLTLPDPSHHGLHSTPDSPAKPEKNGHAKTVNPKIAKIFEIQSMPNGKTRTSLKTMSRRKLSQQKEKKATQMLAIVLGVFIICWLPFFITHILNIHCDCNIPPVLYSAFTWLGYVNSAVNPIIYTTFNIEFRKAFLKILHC

SMILES | Kb (D2 receptors) | Kb (D1 receptors; [2]) | D2 to D1 ratios (D2 receptors) | a2 activity (a2) | EC50 (rabbit ear artery) | natriuretic activity [1] | Kb (D1 receptors)
CCCN(CCC)C1CCc2cc(Cl)c(O)cc2C1 (stereo not shown) [M, reference compound] | 1630 nM | 4710 nM |  |  |  |  | 
NC1CCc2c(ccc(O)c2Cl)C1 (stereo not shown) [O, reference compound] | 11600 nM | > 10000 nM |  |  |  |  | 
NC1CCc2cc(F)c(O)cc2C1 (stereo not shown) [L, reference compound] | 660 nM | 370 nM |  |  |  |  | 
NC1CCc2c(cc(O)c(O)c2F)C1 (stereo not shown) [Compound D, 5-Fluoro-6,7-dihydroxy-2-aminotetralin] | 520 nM | 72 nM | 1 to 7 | demonstrated a2 activity | 2.14 nM |  | 
Oc1ccc(CCNC2CCc3cc(O)c(O)c(Cl)c3C2)cc1 (stereo not shown) [B, 8-Chloro-6,7-dihydroxy-2-(4-hydroxyphenethylamino)tetralin] | 405 nM | 1450 nM |  |  |  |  | 
CCCN(CCc1ccc(O)cc1)C1CCc2cc(O)c(O)c(Cl)c2C1 (stereo not shown) [A, 8-Chloro-6,7-dihydroxy-2-[N-(n-propyl)-N-(4-hydroxyphenethyl)-amino] tetralin] | 33 nM | 270 nM |  |  |  |  | 
NC1CCc2cc(O)c(O)c(F)c2C1 (stereo not shown) [Compound E, 8-Fluoro-6,7-dihydroxy-2-aminotetralin] | 1270 nM | 62 nM | 1 to 27 | demonstrated a2 activity | 5 nM |  | 
CCCN(CCC)C1CCc2cc(O)c(O)c(Cl)c2C1 (stereo not shown) [C, 8-Chloro-6,7-dihydroxy-2-di-n-propyl aminotetralin] | 240 nM | 620 nM |  |  |  |  | 
NC1CCc2cc(O)c(O)cc2C1 (stereo not shown) [ADTN, 6,7-Dihydroxy-2-aminotetralin, reference compound] |  |  | 1 to 3 | demonstrated a2 activity |  | inactive | 
NC1CCc2cc(O)c(O)c(Cl)c2C1 (stereo not shown) [Compound G, 8-Chloro-6,7-dihydroxy-2-aminotetralin] | 3160 nM |  | 1 to 80 | demonstrated a2 activity | 513 nM | potent natriuretic activity | 43 nM
NC1CCc2c(cc(O)c(O)c2Cl)C1 (stereo not shown) [Compound F, 5-Chloro-6,7-dihydroxy-2-aminotetralin] | 470 nM | 640 nM |  | demonstrated a2 activity | 50 nM |  | 
NC1CCc2cc(O)c(Cl)cc2C1 (stereo not shown) [N, reference compound] | 4470 nM | 1970 nM |  |  |  |  | 
